Experimental findings from US20060074084A1, “Inhibitors of soluble adenylate cyclase” (priority 2004, published 2006) are described below.

SMILES strings stand for the structures. pIC50: −log10 of the molar value. Values after ≈ are worked out from the molar mass of the structure shown. Where two headings read alike, the source gives them in different places.

For series [1], the target named is soluble, sperm-specific adenylate cyclase (sAC) (Homo sapiens, UniProt Q96PN6). The series can be described thus: sAC-Assay (enzyme test, HTRF cAMP detection). It is filed as biochemical. The text has this:
In a suitable buffer system, the soluble, sperm-specific adenylate cyclase catalyzes the reaction of adenosine triphosphate (ATP) to cyclic adenosine monophosphate (cAMP) and pyrophosphate. Free cAMP that is generated in this way is then used in a competitive detection process, in which the binding of a europium kryptate (Eu[K])-labeled anti-cAMP antibody (anti cAMP-Eu[K]-AK) to a cAMP-molecule-labeled, modified allophycocyanine-1 molecule (cAMP-XL665) is prevented. In the absence of exogenic cAMP, after excitation at 335 nm, it results in a fluorescence resonance energy transfer (FRET) between the anti cAMP-Eu[K]-AK (FRET-donor) and the cAMP-XL665 molecule (FRET-acceptor). This process is quantified at different times (time-resolved) based on the emission of FRET-acceptor XL665 (665 nm and 620 nm). A signal drop (measured as a wave ratio; calculation formula: [(E665 nm/E620 nm)×10000]) can be attributed to the presence of cAMP and thus to the activity of sAC.
First, 1.5 μl of the test substance (in 30% DMSO), only 30% DMSO in the solvent controls, is introduced per recess in a 384-hole test plate (polystyrene; 384, NV). Then, 10 μl of a dilute sAC enzyme solution is recovered (enzyme stock solution in 300 mmol of NaCl, 10% glycerol; pH 7.6; intermediate and final enzyme dilution a) 1:10 and b) 1:2000 in each case in: 1.0 mmol of MnCl2; 0.2% BSA; 50 mmol of tris, pH 7.5 in H2O). The enzyme reaction is started by adding 5 μl of the ATP-substrate solution (200 μmol of ATP in H2O) and is completed after incubation (25 minutes at room temperature) by the addition of 5 μl of stop solution (200 μmol of EDTA in PBS).
Then, 8 μl of detection solution 1 is introduced into a recess of the 384-hole measuring plate (measuring plate: polystyrene; 384, SV—black; detection solution 1:50 μl of cAMP-XL665; 950 μl of reconstitution buffer; 2200 [[…] of PBS; cAMP-XL665: production by the addition of 5 ml of H2O to the freeze-dried product as specified by Cis Bio Kit: #62AMPPEC instructions; storage: aliquoted at −80° C.). Then, 3 μl from the 91.5 μl is added to the corresponding recess of the test plate. Finally, the addition of 8 μl of detection solution 2 (detection solution 2: 50 μl of anti cAMP-Eu[K]-AK; 950 μl of reconstitution buffer; 2200 μl of PBS; anti cAMP-Eu[K]-AK: production as specified by Cis Bio Kit: #62AMPPEC instructions; storage: aliquoted at −80° C.) is carried out.
After an additional incubation of 90 minutes at room temperature, the HTRF result is measured either on the Packard Discovery or with the RubiStar HTRF measuring device (Delay: 50 μs; Integration time: 400 μs).

The nature of series [2]: Solubility. The series is classed as physicochemical.
Where [3] appears, read: comparison with known compounds in the enzyme test.
Setting [4] is: Biological Data table, read-out: Solubility.

Chain of soluble, sperm-specific adenylate cyclase (sAC) (Q96PN6 whole entry): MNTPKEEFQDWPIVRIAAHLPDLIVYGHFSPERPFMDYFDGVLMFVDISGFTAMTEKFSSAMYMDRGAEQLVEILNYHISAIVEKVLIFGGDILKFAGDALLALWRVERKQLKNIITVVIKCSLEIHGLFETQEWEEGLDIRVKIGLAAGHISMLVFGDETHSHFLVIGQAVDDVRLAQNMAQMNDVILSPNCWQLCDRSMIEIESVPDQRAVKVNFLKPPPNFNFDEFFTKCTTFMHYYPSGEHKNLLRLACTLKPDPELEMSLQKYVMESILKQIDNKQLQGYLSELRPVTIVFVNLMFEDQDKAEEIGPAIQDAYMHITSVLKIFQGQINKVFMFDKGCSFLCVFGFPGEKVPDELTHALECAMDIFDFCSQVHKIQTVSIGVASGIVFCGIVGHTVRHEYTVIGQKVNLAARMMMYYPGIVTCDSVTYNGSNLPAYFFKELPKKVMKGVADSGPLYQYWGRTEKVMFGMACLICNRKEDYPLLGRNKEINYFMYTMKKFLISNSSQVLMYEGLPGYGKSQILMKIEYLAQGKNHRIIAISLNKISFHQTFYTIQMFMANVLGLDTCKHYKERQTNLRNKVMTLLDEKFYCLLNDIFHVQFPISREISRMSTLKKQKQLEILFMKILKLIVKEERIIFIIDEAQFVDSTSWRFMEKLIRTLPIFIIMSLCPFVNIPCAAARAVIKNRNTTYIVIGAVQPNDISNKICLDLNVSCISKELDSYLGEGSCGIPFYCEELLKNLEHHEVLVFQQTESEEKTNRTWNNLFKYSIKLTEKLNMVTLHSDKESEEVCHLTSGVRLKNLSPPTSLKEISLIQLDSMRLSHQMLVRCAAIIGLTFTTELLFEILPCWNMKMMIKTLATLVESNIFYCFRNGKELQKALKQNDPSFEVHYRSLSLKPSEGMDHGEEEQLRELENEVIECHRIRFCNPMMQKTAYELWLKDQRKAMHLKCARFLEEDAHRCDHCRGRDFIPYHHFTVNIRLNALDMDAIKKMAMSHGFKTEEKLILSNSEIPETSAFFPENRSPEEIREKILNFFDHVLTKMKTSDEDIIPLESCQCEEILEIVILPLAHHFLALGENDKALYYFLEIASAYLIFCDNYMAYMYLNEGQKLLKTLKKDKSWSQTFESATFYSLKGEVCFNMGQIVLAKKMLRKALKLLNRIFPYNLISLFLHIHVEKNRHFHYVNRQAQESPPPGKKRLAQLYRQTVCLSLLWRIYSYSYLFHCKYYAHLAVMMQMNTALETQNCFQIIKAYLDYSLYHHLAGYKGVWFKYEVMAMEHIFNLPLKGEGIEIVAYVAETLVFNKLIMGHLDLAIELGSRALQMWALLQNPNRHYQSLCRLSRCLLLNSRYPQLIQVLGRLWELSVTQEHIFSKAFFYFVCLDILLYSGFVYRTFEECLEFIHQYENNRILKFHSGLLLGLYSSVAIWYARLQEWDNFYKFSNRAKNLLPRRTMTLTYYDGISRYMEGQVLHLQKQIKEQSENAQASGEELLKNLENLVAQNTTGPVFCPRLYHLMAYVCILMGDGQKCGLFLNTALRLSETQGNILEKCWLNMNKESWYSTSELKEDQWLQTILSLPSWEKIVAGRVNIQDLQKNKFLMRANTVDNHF

As a reminder, the pIC50 is the IC50 on a negative log10 scale, so that one unit is a factor of ten. The low end stands for a high IC50, the high end for a low IC50. Compound `C[C@]12CC[C@@H]3c4cc(O)c(O)cc4CC[C@H]3[C@@H]1CC[C@@H]2O` [2-OH-Estradiol, reference compound] gave a pIC50 in series [1] (setting [3]) of 4.96.

In series [1] (setting [3]), `C[C@]12CC[C@@H]3c4ccc(O)c(O)c4CC[C@H]3[C@@H]1CC[C@@H]2O` [4-OH-Estradiol, reference compound] had a pIC50 of 4.89.

By solubility is commonly meant the dissolved amount per volume that the medium holds. For the compound `CC(C)(C)c1ccc(S(=O)(=O)Nc2ccc3[nH]c(C(=O)NC4CC4)c(-c4ccccc4)c3c2)cc1` [Example 1, 5-(4-tert-Butylbenzenesulfonylamino)-3-phenyl-1H-indole-2-carboxylic acid-cyclopropylamide], the pIC50 in series [1] (Biological Data table) is 5.47. In series [2] (setting [4]), the solubility was determined as 1 µg/mL (≈ 2.05 µM).

For the compound `CC(C)(C)c1ccc(S(=O)(=O)Nc2ccc3[nH]c(C(=O)Nc4cccnc4)c(-c4ccccc4)c3c2)cc1` [Example 2, 5-(4-tert-Butylbenzenesulfonylamino)-3-phenyl-1H-indole-2-carboxylic acid-pyridin-3-ylamide], the solubility in series [2] (setting [4]) is 1 µg/mL (≈ 1.91 µM).

The compound `CC(C)(C)c1ccc(S(=O)(=O)Nc2ccc3[nH]c(C(=O)NC4CCCCC4)c(-c4ccccc4)c3c2)cc1` [Example 3, 5-(4-tert-Butylbenzenesulfonylamino)-3-phenyl-1H-indole-2-carboxylic acid-cyclohexylamide] had a pIC50 in series [1] (Biological Data table) of 5.70. For the same compound, the solubility in series [2] (setting [4]) is 1 µg/mL (≈ 1.89 µM).

`CN(C)CCNC(=O)c1[nH]c2ccc(NS(=O)(=O)c3ccc(C(C)(C)C)cc3)cc2c1-c1ccccc1` [Example 6, 5-(4-tert-Butylbenzenesulfonylamino)-3-phenyl-1H-indole-2-carboxylic acid-(2-dimethylaminoethyl)amide]: the solubility in series [2] (setting [4]) and in series [2] (comparison table) was 0.1 µg/mL (≈ 0.193 µM) in each case.

For the compound `CCCNC(=O)c1[nH]c2ccc(NS(=O)(=O)c3ccc(C(C)(C)C)cc3)cc2c1-c1ccccc1` [Example 9, 5-(4-tert-Butylbenzenesulfonylamino)-3-phenyl-1H-indole-2-carboxylic acid propylamide], the pIC50 in series [1] (Biological Data table) was 5.28. For the same compound, the solubility in series [2] (setting [4]) came out at 1.5 µg/mL (≈ 3.06 µM).

As to `CCCNC(=O)c1[nH]c2ccc(NS(=O)(=O)c3ccc(OC(F)(F)F)cc3)cc2c1-c1ccccc1` [Example 10, 5-(4-(Trifluoromethoxy)benzenesulfonylamino)-3-phenyl-1H-indole-2-carboxylic acid propylamide], the solubility in series [2] (setting [4]) was determined as 2.1 µg/mL (≈ 4.06 µM).

In turn, `CC(C)(C)c1ccc(S(=O)(=O)Nc2ccc3[nH]c(C(=O)NCCN4CCOCC4)c(-c4ccccc4)c3c2)cc1` [Example 19, 5-(4-tert-Butylbenzenesulfonylamino)-3-phenyl-1H-indole-2-carboxylic acid-(2-morpholin-4-ylethyl)amide] had a pIC50 in series [1] (Biological Data table) of 6.82. Further, in series [2] (setting [4]), the solubility was 4 µg/mL (≈ 7.13 µM).

In turn, `CN1CCN(NC(=O)c2[nH]c3ccc(NS(=O)(=O)c4ccc(C(C)(C)C)cc4)cc3c2-c2ccccc2)CC1` [Example 20, 5-(4-tert-Butylbenzenesulfonylamino)-3-phenyl-1H-indole-2-carboxylic acid-(4-methylpiperazin-1-yl)amide] had a pIC50 in series [1] (Biological Data table) of 5.59.

`CC(C)(C)c1ccc(S(=O)(=O)Nc2ccc3[nH]c(C(=O)Nc4ccncc4)c(-c4ccccc4)c3c2)cc1` [Example 21, 5-(4-tert-Butylbenzenesulfonylamino)-3-phenyl-1H-indole-2-carboxylic acid-pyrindin-4-ylamide]: the pIC50 in series [1] (Biological Data table) is 5.47. Also, in series [2] (setting [4]), the solubility was found to be 0.1 µg/mL (≈ 0.191 µM).

`CN(C)CCNC(=O)c1[nH]c2ccc(NS(=O)(=O)c3ccc(C(C)(C)C)cc3)cc2c1-c1ccccc1Cl` [Example 24, 5-(4-tert-Butylbenzenesulfonylamino)-3-(2-chlorophenyl)-1H-indole-2-carboxylic acid-(2-dimethylaminoethyl)amide] gave a pIC50 in series [1] (Biological Data table) of 5.80. Besides, the solubility in series [2] (setting [4]) was 8 µg/mL (≈ 14.5 µM).

With `CN(C)CCNC(=O)c1[nH]c2ccc(NS(=O)(=O)c3ccc(C(C)(C)C)cc3)cc2c1-c1cccc(Cl)c1` [Example 25, 5-(4-tert-Butylbenzenesulfonylamino)-3-(3-chlorophenyl)-1H-indole-2-carboxylic acid-(2-dimethylaminoethyl)amide], the pIC50 in series [1] (Biological Data table) and in series [1] (setting [3]) was 6.20 throughout. For the same compound, the solubility in series [2] (setting [4]) and in series [2] (comparison table) was 5 µg/mL (≈ 9.04 µM) throughout.

`CN(C)CCNC(=O)c1[nH]c2ccc(NS(=O)(=O)c3ccc(C(C)(C)C)cc3)cc2c1-c1ccc(Cl)cc1` [Example 26, 5-(4-tert-Butylbenzenesulfonylamino)-3-(4-chlorophenyl)-1H-indole-2-carboxylic acid-(2-dimethylaminoethyl)amide] gave a pIC50 in series [1] (Biological Data table) of 5.00. Moreover, in series [2] (setting [4]), the solubility was determined as 3 µg/mL (≈ 5.42 µM).

Regarding `Cc1ccccc1-c1c(C(=O)NCCN(C)C)[nH]c2ccc(NS(=O)(=O)c3ccc(C(C)(C)C)cc3)cc12` [Example 28, 5-(4-tert-Butylbenzenesulfonylamino)-3-(2-methylphenyl)-1H-indole-2-carboxylic acid-(2-dimethylaminoethyl)amide], in series [1] (Biological Data table), the pIC50 was 5.57. Moreover, the solubility in series [2] (setting [4]) was found to be 5 µg/mL (≈ 9.39 µM).

As for `Cc1ccc(-c2c(C(=O)NCCN(C)C)[nH]c3ccc(NS(=O)(=O)c4ccc(C(C)(C)C)cc4)cc23)cc1` [Example 29, 5-(4-tert-Butylbenzenesulfonylamino)-3-(4-methylphenyl)-1H-indole-2-carboxylic acid-(2-dimethylaminoethyl)amide], the pIC50 in series [1] (Biological Data table) was 5.70. The solubility in series [2] (setting [4]) was determined as 7 µg/mL (≈ 13.1 µM).

In turn, `COc1ccc(-c2c(C(=O)NCCN(C)C)[nH]c3ccc(NS(=O)(=O)c4ccc(C(C)(C)C)cc4)cc23)cc1` [Example 31, 5-(4-tert-Butylbenzenesulfonylamino)-3-(4-methoxyphenyl)-1H-indole-2-carboxylic acid-(2-dimethylaminoethyl)amide] had a pIC50 in series [1] (Biological Data table) of 5.92. Moreover, the solubility in series [2] (setting [4]) is 7 µg/mL (≈ 12.8 µM).

In series [1] (Biological Data table), `CN(C)CCNC(=O)c1[nH]c2ccc(NS(=O)(=O)c3ccc(C(C)(C)C)cc3)cc2c1-c1cccnc1` [Example 32, 5-(4-tert-Butylbenzenesulfonylamino)-3-pyridin-3-yl-1H-indole-2-carboxylic acid-(2-dimethylaminoethyl)amide] gave a pIC50 of 5.89. For the same compound, the solubility in series [2] (setting [4]) is 55 µg/mL (≈ 106 µM).

Regarding `CC(C)(C)c1ccc(S(=O)(=O)Nc2ccc3[nH]c(C(=O)NCCO)c(-c4ccccc4)c3c2)cc1` [Example 37, 5-(4-tert-Butylbenzenesulfonylamino)-3-phenyl-1H-indole-2-carboxylic acid-(2-hydroxyethyl)amide], the pIC50 in series [1] (Biological Data table) is 7.15. In addition, the solubility in series [2] (setting [4]) was 13 µg/mL (≈ 26.4 µM).

Turning to `CC(C)(C)c1ccc(S(=O)(=O)Nc2ccc3[nH]c(C(=O)NC4CCOCC4)c(-c4ccccc4)c3c2)cc1` [Example 40, 5-(4-tert-Butylbenzenesulfonylamino)-3-phenyl-1H-indole-2-carboxylic acid-(tetrahydropyran-4-yl)amide], the pIC50 in series [1] (Biological Data table) and in series [1] (setting [3]) was 7.07 in each case. For the same compound, the solubility in series [2] (setting [4]) and in series [2] (comparison table) was 5 µg/mL (≈ 9.4 µM) throughout.
